This is an account of results in PubChem BioAssay (NCI).

Holding throughout (test): NCI-60 cell line screen, 48 h
For assay [1], the system named is 786-0 renal.
For assay [2], the system named is K-562 leukemia.
For assay [3], the system named is NCI-H23 lung.
Assay [4] has as its system SF-268 CNS.
In assay [5] the test system is SN12C renal.
In assay [6] the test system is SNB-19 CNS.
The subject of assay [7] is TK-10 renal.
Assay [8] relates to UACC-62 melanoma.
Assay [9] relates to HCT-116 colon.
Assay [10] relates to NCI-H226 lung.

Values joined by “and” are separate entries in the source; they are usually repeats but may differ in a detail not shown here. Equal entries are not always repeated.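 Values below derive from 48-hour exposures of cells grown in 96-well plates, with endpoints linearly interpolated between the two concentrations bracketing the appropriate inhibition level. GI50 = concentration required for 50% inhibition of growth. TGI: concentration producing complete growth inhibition.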 Bounds are passed on as bounds.

As for `CCOC(C)C(/C=N/NC(N)=S)=NNC(N)=S` (stereo not drawn), the TGI in assay [1], in assay [2], in [3], in assay [4], in assay [5] and in [6] was more than 100 µM throughout. Besides, the TGI in assay [7] and in assay [8] was more than 100 µM each time.
For the molecule `COc1ccc(-c2[nH]c3ccccc3c2C=C(C#N)C#N)cc1`, the GI50 is 0.715 µM in assay [1]; 0.41 µM in [9]; 0.873 µM in assay [10]; 0.6 µM in assay [3]; 0.708 µM in assay [4]; 1.15 µM in assay [5]. Further, the GI50 in assay [6] is 1.3 µM; in [7], 0.917 µM; in [8] it was 0.347 µM. The TGI is more than 32.1 µM in [1]; more than 21.1 µM in [9]; more than 20.1 µM in [10]; more than 42.8 µM in assay [3]; 65.6 µM in assay [4]; more than 100 µM in assay [5]. Also, the TGI is 36.5 µM in assay [6] and more than 71.7 µM in [7].
For the molecule `CC(C)=CCC[C@H](C)[C@@H]1CC[C@]2(C)C3CC[C@]4(OC4(C)C)C(CCCO)[C@]3(C)CC[C@@]12C` (stereo partly drawn), the GI50 in assay [1] was 22.4 µM; in assay [9], 29 µM; in [2], 25.3 µM; in [10], 10 µM; in assay [3], 18.7 µM; in assay [4], 17.8 µM. Moreover, the GI50 in [6] is 24 µM; in assay [7] it was 17.5 µM; in [8], 13.6 µM. The TGI in assay [1] was 48.5 µM; in [9], more than 100 µM; in assay [2] it was 73.3 µM; in assay [10], 57.4 µM; in assay [3] it was 40.2 µM; in assay [4] it was 36 µM. In addition, the figures for the TGI in [6], in assay [7] and in assay [8] were 62.3 µM, 38.2 µM and 30.4 µM, respectively.
Consider `CC(=O)N1N=C2/C(=C/c3ccccc3)CC(C)CC2C1c1ccccc1` (stereo not drawn), for which the GI50 was 17.7 µM in [1]; 4.29 µM in assay [2]; 15.3 µM in [10]; 14.4 µM in assay [3]; 14.8 µM in [4]; 14.8 µM in [5]. For the same molecule, the GI50 in assay [6] was 14.5 µM; in [7], 19.7 µM; in [8] it was 12.6 µM. Besides, the TGI amounted to 34.8 µM in assay [1]; 20.7 µM in assay [2]; 34 µM in [10]; 28 µM in assay [3]; 30.6 µM in [4]; 30.4 µM in [5]. For the same molecule, the results for the TGI in [6], in [7] and in [8] were 30.1 µM, 44.9 µM and 26 µM, respectively.
With `CC1=C(C(=O)Nc2ccc(F)c(Cl)c2)C(c2ccccc2Cl)NC(=S)N1` (stereo not drawn), the GI50 is 30 µM in [1]; 22.4 µM in assay [9]; 21.7 µM in assay [2]; more than 50 µM in assay [3]; 27.6 µM in [4]; 13.3 µM in assay [5]. Further, the values for the GI50 in [6], in assay [7] and in assay [8] were 40 µM, 48.8 µM and 9.63 µM, respectively. The TGI in assay [1] was more than 50 µM; in assay [9], more than 50 µM; in [2], more than 50 µM; in assay [3], more than 50 µM; in [4], more than 50 µM; in assay [5], 42.9 µM. For the same molecule, the TGI in assay [6], in assay [7] and in [8] was more than 50 µM each time.
As for `CC(=O)[CH-]C(=O)c1ccccc1.CC(=O)[CH-]C(=O)c1ccccc1.CC[O-].CC[O-].[Zr+4]`, the GI50 in assay [1], in assay [9], in [2], in [10], in assay [3] and in assay [4] was more than 100 µM each time. The GI50 in assay [5], in assay [6] and in assay [8] was more than 100 µM in each case. In addition, the TGI in [1], in assay [9], in [2], in [10], in [3] and in [4] was more than 100 µM in each case. Moreover, the TGI in [5], in assay [6] and in assay [8] was more than 100 µM in each case.
For `C=C1C(=O)O[C@H]2[C@H]1CC/C(COC(=O)CCCCC(=O)OC/C1=C/CC[C@@]3(C)O[C@H]3[C@H]3OC(=O)C(=C)[C@@H]3CC1)=C\CC[C@@]1(C)O[C@@H]21`, the GI50 in [1] is 1.69 µM; in assay [2], 1.87 µM; in assay [10], 1.9 µM; in assay [3] it was 2.76 µM; in assay [4], 3.02 µM; in [5], 2.62 µM. Further, the values for the GI50 in assay [6] and in assay [8] were 5.99 µM and 1.7 µM, respectively. Besides, the TGI in [1] is 3.86 µM; in assay [2], more than 100 µM; in assay [10], 4.36 µM; in assay [3] it was 14 µM; in assay [4] it was more than 100 µM; in assay [5] it was more than 100 µM. Also, the TGI in assay [6] is more than 100 µM; in assay [8] it was 4.04 µM.
As for `O=S(=O)(O)O.[NH-]C1CCCCC1[NH-].[Pt+2]` (stereo not drawn), the GI50 in assay [1] was 40.7 µM; in assay [9], 43.4 µM; in assay [2], 37 µM; in assay [3], more than 100 µM; in assay [4] it was more than 100 µM; in assay [5], more than 100 µM. Further, the GI50 in assay [6], in [7] and in assay [8] was more than 100 µM each time. Moreover, the TGI in assay [1], in assay [9], in assay [2], in assay [3], in [4] and in [5] was more than 100 µM each time. Moreover, the TGI in [6], in assay [7] and in [8] was more than 100 µM in each case.
As to `O=c1cc(-c2cccc(C(F)(F)F)c2)[nH]c2cc3c(cc12)OCO3`, the GI50 in [1] is 0.902 µM; in assay [9], 1.98 µM and 0.482 µM; in assay [3], 0.276 µM; in assay [5] it was 0.735 µM; in [6], 0.427 µM; in assay [7], 22.5 µM. The GI50 in [8] is 0.356 µM. The TGI in assay [1] is 7.91 µM and 27 µM; in assay [9], 19.1 µM and 29.4 µM; in [2], more than 100 µM; in [5] it was 50 µM and > 100 µM; in assay [6], 50 µM and 7.58 µM; in assay [7], more than 100 µM.
In the case of `CC1(C)COC(C23C4C5C2C2C3C4C52I)=N1` (stereo not drawn), the TGI in assay [1], in assay [2], in assay [10], in assay [3], in assay [4] and in assay [5] was more than 100 µM in each case. For the same molecule, the TGI in assay [6], in assay [7] and in assay [8] was more than 100 µM each time.
In the case of `CCCCCCCCCCCCCC(=O)O[C@H]1CC[C@H](NC(=O)[C@H](OC)[C@H](O)[C@@H](O)[C@H](O)/C=C/C(C)C)C(=O)NC1`, the TGI was 0.928 µM in assay [1]; 1.06 µM in assay [9]; 11.8 µM and 15.4 µM in assay [2]; 4.29 µM in [10]; 4.77 µM and 0.5 µM in assay [3]; 18.8 µM and 22.5 µM in assay [4]. Also, the TGI in assay [5] was 10.8 µM and 18.6 µM; in assay [6], 51.2 µM and 25.9 µM; in [8] it was 0.0143 µM and 0.045 µM. The GI50 in assay [10] was 0.00206 µM.
As for `Cc1ccc(NC(=O)CCC(CC(=O)C(C)(C)C)=NNC(=O)C(=O)NN)cc1C`, the TGI in [1], in [2], in assay [10], in [3], in assay [4] and in assay [5] was more than 100 µM in each case. Besides, the TGI in [6], in [7] and in assay [8] was more than 100 µM in each case.
In the case of `O=C(O)C(CP(=O)(O)O)=C(Cl)Cl`, the TGI in assay [1], in assay [9], in assay [10], in assay [3], in [4] and in [5] was more than 100 µM in each case. Moreover, the TGI in assay [6], in assay [7] and in assay [8] was more than 100 µM in each case.
As for `CC1CC2(C)ON=C(c3ccccc3)N2c2ccccc2S1` (stereo not drawn), the GI50 in assay [1] was 34.4 µM; in [9], 21.4 µM; in [2], 16.3 µM; in assay [3], 28.1 µM; in assay [4], 36.3 µM; in assay [5], 18 µM. The values for the GI50 in assay [6] and in [8] were 53.9 µM and 21 µM, respectively. In addition, the TGI in assay [9] is 49.6 µM; in [2], 43 µM; in [3], 97.5 µM; in assay [5], 34.2 µM; in assay [8] it was 84.3 µM.
Consider `CS(=O)(=O)NNS(=O)(=O)c1cccc([N+](=O)[O-])c1`, for which the TGI in [1], in assay [9], in assay [2], in assay [10], in assay [3] and in [5] was more than 100 µM each time. The TGI in [6], in assay [7] and in [8] was more than 100 µM throughout.
With `CCN(CC)CCCC(C)Nc1cnc(C(=O)Nc2ccc(Cl)c3cccnc23)cn1` (stereo not drawn), the GI50 in assay [1] was 1.4 µM; in assay [2] it was 1.05 µM; in [10], 4.73 µM; in assay [3], 5.04 µM; in assay [4] it was 3.23 µM; in assay [5] it was 2.19 µM. For the same molecule, the values for the GI50 in [6], in assay [7] and in assay [8] were 3.37 µM, 9.09 µM and 1.85 µM, respectively. In addition, the TGI in [1] was found to be 2.87 µM; in [2], 3.71 µM; in assay [10], 20.7 µM; in [3], 19.6 µM; in assay [4], 15 µM; in [5], 5.53 µM. For the same molecule, the TGI in [6] is 13.9 µM; in assay [7], 21.9 µM; in assay [8], 3.43 µM.
Regarding `O=S1c2ccccc2N=C(c2ccc3ccccc3c2)CC1C1=CC=CCC1` (stereo not drawn), the TGI was 29.8 µM in [1]; 27.4 µM in assay [2]; 43.9 µM in [10]; 30.6 µM in [3]; more than 100 µM in [4]; 36.9 µM in [5]. Also, the TGI was 51.7 µM in assay [7] and 34.5 µM in assay [8].
As for `COc1cc2c3c(n(CCCCOC(=O)C(F)(F)F)c(=O)c2cc1OC)-c1cc2c(cc1C3=O)OCO2`, the GI50 in assay [1] is 0.982 µM; in assay [2], more than 50.4 µM; in assay [10] it was 98.6 µM; in assay [3], more than 100 µM; in assay [4], more than 100 µM; in assay [5], more than 93.9 µM. Moreover, the GI50 in assay [6], in assay [7] and in assay [8] was more than 100 µM each time. Besides, the TGI in assay [1] was 7.65 µM; in assay [2], more than 100 µM; in [10], more than 100 µM; in assay [3], more than 100 µM; in assay [4], more than 100 µM; in [5], more than 100 µM. Besides, the TGI in [6], in assay [7] and in assay [8] was more than 100 µM throughout.
As to `O=c1/c(=C/c2cccc([N+](=O)[O-])c2)sc2nc3ccccc3n12`, the TGI in assay [1], in assay [9], in assay [2], in assay [10], in [3] and in assay [4] was more than 100 µM in each case. Further, the TGI in [5], in assay [7] and in assay [8] was more than 100 µM throughout.
In the case of `Cc1nc(Cl)nc(Cl)c1C`, the TGI in assay [1], in assay [2], in assay [10], in assay [3], in [4] and in assay [5] was more than 100 µM in each case. The TGI in assay [6] and in [7] was more than 100 µM each time.
As to `COc1cc(/C=C2/C(=O)N(C(=O)OC(C)C)C(Cc3cc(OC)c(OC)c(C)c3OC)C(=O)N2Cc2ccccc2)c(OC)c(C)c1OC` (stereo not drawn), the TGI is more than 100 µM in assay [1]; more than 100 µM in assay [9]; more than 100 µM in [2]; 30 µM in [10]; more than 100 µM in [3]; more than 100 µM in assay [4]. For the same molecule, the TGI in assay [5], in assay [7] and in assay [8] was more than 100 µM in each case.
